The numbers were not newly measured in PubChem BioAssay AID1259409 (Chemical Carcinogenesis Research Information System (CCRIS), 2018), which cites them from elsewhere.

Structures are written as SMILES.

The test system of the data set is rodent chemically induced tumor inhibition, incidence and multiplicity. Put plainly: CCRIS tumor inhibitor studies.

Turning to `C=C(C)[C@@H](CC=C(C)C)CC12C[C@@H](CC=C(C)C)C(C)(C)C(CC=C(C)C)(C(=O)/C(=C(\O)c3ccc(O)c(O)c3)C1=O)C2=O` (stereo not given in full), the outcome by setting is: (Carcinogen: 4-NITROQUINOLINE 1-OXIDE [56-57-5], Dose [Inhibitor]: 0, 100, 500 PPM FOR 8 WKS STARTING AT 6 WKS OF AGE TO 1 WK AFTER CARCINOGEN EXPOSURE (STUDY DURATION: 32 WKS), Dose [Inhibitor]: 0, 100, 500 PPM FOR 8 WKS STARTING AT 6 WKS OF AGE TO 1 WK AFTER CARCINOGEN EXPOSURE (STUDY DURATION: 32 WKS), Route [Inhibitor]: ORAL (DIET), Species: RAT, Strain/Sex: F344/MALE (?,26)/(?,16), Target Tissue: Type of Lesion: TONGUE: SQUAMOUS CELL CARCINOMA, Dose [Carcinogen]: 20 PPM FOR 8 WKS STARTING AT 7 WKS OF AGE (STUDY DURATION: 32 WKS)) “(13/26) 50%; (2/16) 12.5%, 75%, p<0.02; (1/16) 6.3%, 87%, p<0.005”; (Carcinogen: 4-NITROQUINOLINE 1-OXIDE [56-57-5], Dose [Inhibitor]: 0, 100, 500 PPM FOR 8 WKS STARTING AT 6 WKS OF AGE TO 1 WK AFTER CARCINOGEN EXPOSURE (STUDY DURATION: 32 WKS), Dose [Inhibitor]: 0, 100, 500 PPM FOR 8 WKS STARTING AT 6 WKS OF AGE TO 1 WK AFTER CARCINOGEN EXPOSURE (STUDY DURATION: 32 WKS), Route [Inhibitor]: ORAL (DIET), Species: RAT, Strain/Sex: F344/MALE (?/26)/(?,16), Target Tissue: Type of Lesion: TONGUE: PAPILLOMA, Dose [Carcinogen]: 20 PPM FOR 8 WKS STARTING AT 7 WKS OF AGE (STUDY DURATION: 32 WKS)) “(4/26) 15.4%; (1/16) 6.3%, 59.1%; (1/16) 6.3%, 59.1%”; (Carcinogen: 4-NITROQUINOLINE 1-OXIDE [56-57-5], Dose [Inhibitor]: 100, 500 PPM STARTING 1 WK AFTER CARCINOGEN FOR 22 WKS (STUDY DURATION: 32 WKS), Route [Inhibitor]: ORAL (DIET), Species: RAT, Strain/Sex: F344/MALE (?,26)/(?,15), Target Tissue: Type of Lesion: TONGUE: PAPILLOMA, Dose [Carcinogen]: 20 PPM FOR 8 WKS STARTING AT 7 WKS OF AGE (STUDY DURATION: 32 WKS)) “(4/26) 15%; (3/15) 20%, -30%; (2/15) 13%, 14%”; (Carcinogen: 4-NITROQUINOLINE 1-OXIDE [56-57-5], Dose [Inhibitor]: 100, 500 PPM STARTING 1 WK AFTER CARCINOGEN FOR 22 WKS (STUDY DURATION: 32 WKS), Route [Inhibitor]: ORAL (DIET), Species: RAT, Strain/Sex: F344/MALE (?,26)/(?,15), Target Tissue: Type of Lesion: TONGUE: SQUAMOUS CELL CARCINOMA, Dose [Carcinogen]: 20 PPM FOR 8 WKS STARTING AT 7 WKS OF AGE (STUDY DURATION: 32 WKS)) “(13/26) 50%; (1/15) 6.7%, 87%, p<0.05; (0/15) 0%, 100%, p<0.001”.

For `CC(=O)O[C@@H]1[C@H]2[C@@H](OC(=O)c3ccccc3)[C@@H](OC(=O)c3ccccc3)[C@]3(C)[C@@H](OC(=O)c4ccccc4)[C@@H](OC(=O)c4ccccc4)C[C@@H](C)[C@@]13OC2(C)C`, the “tumour outcome (control, treated, inhibition, significance)” value reads like this: (Carcinogen: 7,12-DIMETHYLBENZ[A]ANTHRACENE, 57-97-6, Dose [Inhibitor]: 0, 85 NMOL IN 0.1 ML ACETONE 2/WK APPLIED 1 HR POST EACH PROMOTER DOSE BEGINNING 1 WK POST CARCINOGEN DOSE AND CONTINUIN, Route [Inhibitor]: DERMAL, Species: MOUSE, Strain/Sex: ICR/FEMALE, Target Tissue: Type of Lesion: SKIN: TUMOR, Dose [Carcinogen]: 390 NMOL IN 0.1 ML ACETONE ONCE, Promoter: 12-O-TETRADECANOYLPHORBOL-13-ACETATE, 16561-29-8) 100%, 52%, 48%, not calculated; (Carcinogen: 7,12-DIMETHYLBENZ[A]ANTHRACENE, 57-97-6, Dose [Inhibitor]: 0, 85 NMOL IN 0.1 ML ACETONE 2/WK APPLIED 1 HR PRIOR TO EACH PROMOTER DOSE BEGINNING 1 WK POST CARCINOGEN DOSE AND CONTI, Route [Inhibitor]: DERMAL, Species: MOUSE, Strain/Sex: ICR/FEMALE, Target Tissue: Type of Lesion: SKIN: TUMOR, Dose [Carcinogen]: 390 NMOL IN 0.1 ML ACETONE ONCE, Promoter: 12-O-TETRADECANOYLPHORBOL-13-ACETATE, 16561-29-8) 100%, 86%, 14%, not calculated.

Take `Cc1c[nH]c(=O)[nH]c1=O`: the “tumour outcome (control, treated, inhibition, significance)” value runs as follows: (Carcinogen: 7,12-DIMETHYLBENZ[A]ANTHRACENE, 57-97-6, Dose [Inhibitor]: 1% IN 20% PROTEIN DIET AND 0.5% IN DRINKING WATER (STUDY DURATION: 150 D), Route [Inhibitor]: ORAL, Species: RAT, Strain/Sex: STRAIN-CB/FEMALE, Target Tissue: Type of Lesion: MAMMARY GLAND: TUMOR, Dose [Carcinogen]: 15 MG IN 1 ML ARACHIS OIL TWICE 14 D APART, Promoter: NONE USED) 11/11 (100%), 6/11 (55%), 45%, not calculated; (Carcinogen: 7,12-DIMETHYLBENZ[A]ANTHRACENE, 57-97-6, Dose [Inhibitor]: 1.5% IN 20% PROTEIN DIET (STUDY DURATION: 100 D), Route [Inhibitor]: ORAL, Species: RAT, Strain/Sex: STRAIN-CB/FEMALE, Target Tissue: Type of Lesion: MAMMARY GLAND: TUMOR, Dose [Carcinogen]: 15 MG IN 1 ML ARACHIS OIL THREE DOSES GIVEN 1/2 WK, Promoter: NONE USED) 18/18 (100%), 16/20 (80%), 20%, not calculated; (Carcinogen: NONE USED, Dose [Inhibitor]: 0.4% IN DRINKING WATER, STARTING AT 7-9 WK OF AGE AND CONTINUING FOR DURATION OF STUDY (STUDY DURATION: 10-12 MO), Route [Inhibitor]: ORAL, Species: MOUSE, Strain/Sex: STRAIN-A/MALE, FEMALE, Target Tissue: Type of Lesion: LUNG: ADENOMA, Promoter: NONE USED) 48%, 17%, 65%, p 0.02.

`CCCCCCCCCCCCCCCC(=O)OC[C@H](O)[C@H]1OC(=O)C(O)=C1O`: the “tumour outcome (control, treated, inhibition, significance)” value reads like this: (Carcinogen: 7,12-DIMETHYLBENZ[A]ANTHRACENE, 57-97-6, Dose [Inhibitor]: 0, 1 UMOL 1/WK 5 MIN PRIOR TO EACH PROMOTER DOSE BEGINNING 2 WK POST CARCINOGEN DOSE AND CONTINUING FOR 27 WK (STUDY DUR, Route [Inhibitor]: DERMAL, Species: MOUSE, Strain/Sex: SENCAR/FEMALE, Target Tissue: Type of Lesion: SKIN: PAPILLOMA, Dose [Carcinogen]: 25 NMOL ONCE, Promoter: CHRYSAROBIN, 491-58-7) 100%, 88%, 12%, not significant; (Carcinogen: 7,12-DIMETHYLBENZ[A]ANTHRACENE, 57-97-6, Dose [Inhibitor]: 0, 4 UMOL 1/WK 5 MIN PRIOR TO EACH PROMOTER DOSE BEGINNING 2 WK POST CARCINOGEN DOSE AND CONTINUING FOR 27 WK (STUDY DUR, Route [Inhibitor]: DERMAL, Species: MOUSE, Strain/Sex: SENCAR/FEMALE, Target Tissue: Type of Lesion: SKIN: PAPILLOMA, Dose [Carcinogen]: 25 NMOL ONCE, Promoter: CHRYSAROBIN, 491-58-7) 100%, 90%, 10%, not significant.

For the compound `CC1=CCC(O)(C(C)C)CC1` (stereo not given), the outcome is 75%, 85% (Carcinogen: 7,12-DIMETHYLBENZ[A]ANTHRACENE (57-97-6), Dose [Inhibitor]: 10 MG/KG BW DAILY BETWEEN 45 AND 59 D OF AGE (STUDY DURATION: 1 YR), Route [Inhibitor]: INTRAGASTRIC (GASTRIC) IN HYDROXYETHYLCELLULOSE SODIUM, Species: RAT, Strain/Sex: SPRAGUE-DAWLEY/FEMALE, Target Tissue: Type of Lesion: MAMMARY: ADENOCARCINOMA, Dose [Carcinogen]: 75 MG/KG BW IN SESAME OIL (ONCE) AT 60 D OF AGE) and 75%, 58% (Carcinogen: 7,12-DIMETHYLBENZ[A]ANTHRACENE (57-97-6), Dose [Inhibitor]: 10 MG/KG BW DAILY FOR 6 MO AFTER CARCINOGEN ADMINISTRATION, Route [Inhibitor]: INTRAGASTRIC (GASTRIC), Species: RAT, Strain/Sex: SPRAGUE-DAWLEY/FEMALE, Target Tissue: Type of Lesion: MAMMARY: ADENOCARCINOMA, Dose [Carcinogen]: 75 MG/KG BW AT 55 D OF AGE (STUDY DURATION: 1 YR)).

Consider `OCCOc1ccc(/C(=C(/CCCl)c2ccccc2)c2ccccc2)cc1`, for which the “tumour outcome (control, treated, inhibition, significance)” value reads like this: (Carcinogen: 7,12-DIMETHYLBENZ[A]ANTHRACENE (DMBA) (57-97-6), Dose [Inhibitor]: 50 MG/KG/D FOR 37 WK (STUDY DURATION: 37 WK), Route [Inhibitor]: ORAL GAVAGE, Species: MOUSE, Strain/Sex: SENCAR/FEMALE, Target Tissue: Type of Lesion: MAMMARY: CARCINOMA, Dose [Carcinogen]: 20 UG/D FOR 6 WKS (STUDY DURATION: 37 WKS), Promoter: MEDROXYPROGESTERONE ACETATE (71-58-9)) 10/21 (48%); 1/18 (6%), 88%, p=0.003; (Carcinogen: 7,12-DIMETHYLBENZ[A]ANTHRACENE (DMBA) [57-97-6], Dose [Inhibitor]: 50 MG/KG/D FOR 52 WK (STUDY DURATION: 52 WK), Route [Inhibitor]: ORAL GAVAGE, Species: MOUSE, Strain/Sex: SENCAR/FEMALE, Target Tissue: Type of Lesion: MAMMARY: CARCINOMA, Dose [Carcinogen]: 20 UG/D FOR 6 WKS, Promoter: MEDROXYPROGESTERONE ACETATE (71-58-9)) 13/23 (57%); 1/20 (5%), 91%, p=0.0003.
